Results: PubChem BioAssay AID1963420 (Molecular Pharmacology Branch, DTP, NCI, 2024)

System: 494315-158-R-J1-PDC complex spheroid growth, percent test/control
Test: Anticancer human tumor 494315-158-R-J1-PDC patient-derived soft tissue sarcoma cell line growth inhibition [Asc]
Details: for IC50: curve of first compound; for viability, T/C: stronger effect = lower value
Method in brief: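 Concentration series start at each agent's clinical Cmax, or at 10 microM when none is established, and drop in half-log steps; agents are applied alone or together to complex spheroids built with HUVEC and hMSC.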

[1] = second compound 0.1 µM, first compound 0.00316 µM
[2] = second compound 0.1 µM, first compound 0.01 µM
[3] = second compound 0.1 µM, first compound 0.0316 µM
[4] = second compound 0.1 µM, first compound 0.1 µM
[5] = second compound 0.1 µM, first compound 0.316 µM
[6] = second compound 0.1 µM, first compound 1 µM
[7] = second compound 0.316 µM, first compound 0.00316 µM
[8] = second compound 0.316 µM, first compound 0.01 µM
[9] = second compound 0.316 µM, first compound 0.0316 µM
[10] = second compound 0.316 µM, first compound 0.1 µM
[11] = second compound 0.316 µM, first compound 0.316 µM
[12] = second compound 0.316 µM, first compound 1 µM
[13] = second compound 1 µM, first compound 0.00316 µM
[14] = second compound 1 µM, first compound 0.01 µM
[15] = second compound 1 µM, first compound 0.0316 µM
[16] = second compound 1 µM, first compound 0.1 µM
[17] = second compound 1 µM, first compound 0.316 µM
[18] = second compound 1 µM, first compound 1 µM
[19] = second compound 3.16 µM, first compound 0.00316 µM
[20] = second compound 3.16 µM, first compound 0.01 µM
[21] = second compound 3.16 µM, first compound 0.0316 µM
[22] = second compound 3.16 µM, first compound 0.1 µM
[23] = second compound 3.16 µM, first compound 0.316 µM
[24] = second compound 3.16 µM, first compound 1 µM
[25] = second compound 10 µM, first compound 0.00316 µM
[26] = second compound 10 µM, first compound 0.01 µM
[27] = second compound 10 µM, first compound 0.0316 µM
[28] = second compound 10 µM, first compound 0.1 µM
[29] = second compound 10 µM, first compound 0.316 µM
[30] = second compound 10 µM, first compound 1 µM
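Also: compound exposure lasted seven days after spheroids formed for three days.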

IC50 (second compound 0.1 µM) [µM] | IC50 (second compound 0.316 µM) [µM] | IC50 (second compound 1 µM) [µM] | IC50 (second compound 3.16 µM) [µM] | IC50 (second compound 10 µM) [µM] | Compound | viability, T/C [1] [%] | viability, T/C [2] [%] | viability, T/C [3] [%] | viability, T/C [4] [%] | viability, T/C [5] [%] | viability, T/C [6] [%] | viability, T/C [7] [%] | viability, T/C [9] [%] | viability, T/C [10] [%] | viability, T/C [15] [%] | viability, T/C [16] [%] | viability, T/C [21] [%] | viability, T/C [22] [%] | viability, T/C [27] [%] | viability, T/C [28] [%] | also measured
> 1 | 0.829 | > 1 | 0.272 | 0.725 | CCN1CCN(Cc2ccc(Nc3ncc(F)c(-c4cc(F)c5nc(C)n(C(C)C)c5c4)n3)nc2)CC1 + Cc1c(S(C)(=O)=O)c(-c2cc(F)cc(N3CCN(c4ccc(NS(=O)(=O)c5ccc(NC(CCN6CCC(C(=O)OCCCP(=O)(O)O)CC6)CSc6ccccc6)c(S(=O)(=O)C(F)(F)F)c5)cc4)CC3)c2)c(-c2ccc(Cl)cc2)n1C(C)C | 75.6 | 83 | 78.3 | 77.1 | 77.8 | 53.6 | 72.2 | 78 | 67.1 | 68 | 65.7 | 54.3 | 61.4 | 73.2 | 76.7 | viability, T/C [8]: 79.8%; viability, T/C [11]: 70.9%; viability, T/C [12]: 46.1%; viability, T/C [13]: 61.9%; viability, T/C [14]: 65.7%; viability, T/C [17]: 61.6%; viability, T/C [18]: 41.1%; viability, T/C [19]: 56.1%; viability, T/C [20]: 52%; viability, T/C [23]: 46.2%; viability, T/C [24]: 31.3%; viability, T/C [25]: 79%; viability, T/C [26]: 81%; viability, T/C [29]: 73.3%; viability, T/C [30]: 41%
0.0268 | 0.0181 | 0.00434 | 0.0013 | 0.00461 | Cn1ncnc1[C@H]1c2n[nH]c(=O)c3cc(F)cc(c23)N[C@@H]1c1ccc(F)cc1 + Cc1c(S(C)(=O)=O)c(-c2cc(F)cc(N3CCN(c4ccc(NS(=O)(=O)c5ccc(NC(CCN6CCC(C(=O)OCCCP(=O)(O)O)CC6)CSc6ccccc6)c(S(=O)(=O)C(F)(F)F)c5)cc4)CC3)c2)c(-c2ccc(Cl)cc2)n1C(C)C | 62.2 | 56.5 | 48.7 | 46.1 | – | – | 63.9 | 50.9 | 48.9 | 38.9 | 35 | 32.9 | 25.4 | 38.4 | 45.7 | viability, T/C (second compound 0.1 µM, first compound 0.000316 µM): 83.2%; viability, T/C (second compound 0.1 µM, first compound 0.001 µM): 76%; viability, T/C (second compound 0.316 µM, first compound 0.000316 µM): 74.6%; viability, T/C (second compound 0.316 µM, first compound 0.001 µM): 63.1%; viability, T/C [8]: 44.6%; viability, T/C (second compound 1 µM, first compound 0.000316 µM): 56.4%; viability, T/C (second compound 1 µM, first compound 0.001 µM): 59%; viability, T/C [13]: 52%; viability, T/C [14]: 43%; viability, T/C (second compound 3.16 µM, first compound 0.000316 µM): 56.1%; viability, T/C (second compound 3.16 µM, first compound 0.001 µM): 53.5%; viability, T/C [19]: 40.3%; viability, T/C [20]: 31.6%; viability, T/C (second compound 10 µM, first compound 0.000316 µM): 66.1%; viability, T/C (second compound 10 µM, first compound 0.001 µM): 71.2%; viability, T/C [25]: 53.3%; viability, T/C [26]: 45.2%
3.04 | 1.62 | 1.64 | 1.08 | 2.26 | O=C(c1cc(Cc2n[nH]c(=O)c3ccccc23)ccc1F)N1CCN(C(=O)C2CC2)CC1 + Cc1c(S(C)(=O)=O)c(-c2cc(F)cc(N3CCN(c4ccc(NS(=O)(=O)c5ccc(NC(CCN6CCC(C(=O)OCCCP(=O)(O)O)CC6)CSc6ccccc6)c(S(=O)(=O)C(F)(F)F)c5)cc4)CC3)c2)c(-c2ccc(Cl)cc2)n1C(C)C | – | – | 86 | 76.2 | 69.2 | 63.5 | – | 71.7 | 66.4 | 62.7 | 70.9 | 48.1 | 51.8 | 69.5 | 77.1 | viability, T/C (second compound 0.1 µM, first compound 3.16 µM): 49.5%; viability, T/C (second compound 0.1 µM, first compound 10 µM): 36.3%; viability, T/C [11]: 59.7%; viability, T/C [12]: 57.6%; viability, T/C (second compound 0.316 µM, first compound 3.16 µM): 42.5%; viability, T/C (second compound 0.316 µM, first compound 10 µM): 33%; viability, T/C [17]: 62%; viability, T/C [18]: 57.8%; viability, T/C (second compound 1 µM, first compound 3.16 µM): 40.1%; viability, T/C (second compound 1 µM, first compound 10 µM): 23.4%; viability, T/C [23]: 53.5%; viability, T/C [24]: 51%; viability, T/C (second compound 3.16 µM, first compound 3.16 µM): 37%; viability, T/C (second compound 3.16 µM, first compound 10 µM): 22.2%; viability, T/C [29]: 73.4%; viability, T/C [30]: 58.5%; viability, T/C (second compound 10 µM, first compound 3.16 µM): 46.8%; viability, T/C (second compound 10 µM, first compound 10 µM): 29.3%
0.543 | 0.375 | 0.258 | 0.142 | 0.245 | O=C(c1ccc(F)c(F)c1Nc1ccc(I)cc1F)N1CC(O)([C@@H]2CCCCN2)C1 + Cc1c(S(C)(=O)=O)c(-c2cc(F)cc(N3CCN(c4ccc(NS(=O)(=O)c5ccc(NC(CCN6CCC(C(=O)OCCCP(=O)(O)O)CC6)CSc6ccccc6)c(S(=O)(=O)C(F)(F)F)c5)cc4)CC3)c2)c(-c2ccc(Cl)cc2)n1C(C)C | 78.8 | 78.8 | 87.4 | 85.3 | 72.1 | 24.9 | 71.2 | 70.6 | 72 | 71.6 | 72.5 | 59.5 | 53.6 | 76.4 | 79.9 | viability, T/C [8]: 78.9%; viability, T/C [11]: 55.8%; viability, T/C [12]: 15.5%; viability, T/C [13]: 60.4%; viability, T/C [14]: 61.2%; viability, T/C [17]: 46.5%; viability, T/C [18]: 12.2%; viability, T/C [19]: 60.5%; viability, T/C [20]: 53.6%; viability, T/C [23]: 40.7%; viability, T/C [24]: 18.3%; viability, T/C [25]: 68.2%; viability, T/C [26]: 75.2%; viability, T/C [29]: 43%; viability, T/C [30]: 13.7%
